From patent US11931330B2, “Composition for promoting skeletal muscle activity via induction of mitochondrial biogenesis comprising of azelaic acid as an active ingredient” (Korea University Research and Business Foundation, priority 2018, dated 2024)

What was measured:
[1] = system: muscle tissue of mice; experiment: Intraperitoneal injection to normal and Olfr544 knockout mice, muscle tissue protein expression; assay type: in vivo, mouse; details: intraperitoneal 100 mg/kg; for pERK/ERK protein expression increase in muscle: compared with control
Source text: FIG. 7A to FIG. 7E are diagrams showing mechanisms of promoting mitochondrial biogenesis according to Olfr544 activity of an azelaic acid in mice (FIG. 7A: the images showing pCREB, CREB, PGC-1α, ERK1/2, pERK1/2 and LC3 proteins expression, FIG. 7B: analysis for pCREB and CREB protein expression levels, FIG. 7C: analysis for PGC-1α protein expression per an azelaic acid treatment time, FIG. 7D: analysis for pERK and ERK protein expression levels, and FIG. 7E: analysis for LC3 protein expression per an azelaic acid treatment time in muscle tissue extracted 30 and 120 minutes after an azelaic acid is intraperitoneally injected into normal mice and Olfr544 KO mice).
(§1) 8-week-old ICR male […] and C57BL/6J were purchased from Samtako (Gyeonggi-do, Seoul), and Olfr544 knockout mice from which exon 2 (161-428 bp) of an Olfr544 gene was removed using a CRISPR-Cas9 system were purchased from Macrogen (Seoul, Korea). All animal experiments were carried out in accordance with the experimental method (Protocol No. KUIACUC-2016-97) approved by the Animal Experiment Ethics Committee at Korea University. In the breeding environment, a 12-hour light cycle, a room temperature of 25 to 31° C., and relative humidity of […] were maintained. The mice were freely fed a 60% high-fat diet, and randomly divided into 4 groups (n=7, two groups for normal mice, and the other two groups for knockout (KO) mice). For exact Olfr544 activation, the mice were fasted overnight, and then intraperitoneally injected with an azelaic acid (100 mg/kg of body weight). For a control, the same amount of PBS was intraperitoneally injected. In an experiment for long-term administration of an azelaic acid, the azelaic acid was orally administered at a dose of 100 mg/kg of body weight. During the last week of the experimental period (6 weeks), the mice fasted for 16 hours were anesthetized and sacrificed. The collected muscle tissue was put into a freezing tube, immediately put into liquid nitrogen, and then stored at −80° C.

[2] = system: Hepa1c1c-7 cells; experiment: MTT assay, cytotoxicity of azelaic acid; assay type: cell-based; details: 0 to 500 μM, 24 hours, compared to the control group
Procedure: To evaluate cytotoxicity of an azelaic acid, an MTT assay was performed. The MTT assay is a test method utilizing the ability of mitochondria to reduce MTT tetrazolium, which is a yellow water-soluble substrate, to non-water-soluble MTT formazan showing a blue-violet color by a dehydrogenase. The MTT reagent was prepared by being diluted in phosphate buffered saline (PBS) at a concentration of 2 to 5 mg/mL. Hepalcic-7 cells used in this experiment were purchased from the Korean Cell Line Bank, and cultured in a minimum essential medium Eagle alpha modification medium (MEM-alpha, Hyclone) supplemented with 10% FBS and 1% PEST. For this experiment, the Hepa1c1c-7 cells (4×10^4 cell/mL) were seeded into a 96-well plate and incubated at 37° C. under 5% CO2 for 24 hours, and then incubated for 24 hours by adding an azelaic acid in a concentration range of 0 to 500 μM. Afterward, each sample was treated with 100 μL of the MTT reagent (4 mg/mL), incubated at 37° C. under 5% CO2 for 4 hours and treated with 100 μL of dimethyl sulfoxide (DMSO), followed by measuring absorbance at 540 nm. Since the absorbance level is proportional to a cell count, a cell death effect caused by toxicity may be quantified.

[3] = system: Olfr544; experiment: mtDNA and mitochondrial density in Scr siRNA normal and Olfr544 knockdown C2C12 cells; assay type: cell-based, murine
Procedure: (§2) The differentiated skeletal muscle cells, C2C12 cells, were transfected with 200 pmol of scramble (control) or Olfr544 siRNA duplex (Santa Cruz, USA) using the Lipofectamine 2000 reagent (Invitrogen, USA) for 6 hours. Subsequently, another transfection was performed for 10 to 12 hours. The transfected cells were used for RNA or protein extraction.
(§3) The differentiated C2C12 cells were treated with azelaic acid, treated with 300 μL of a lysis buffer (20 mM EDTA, 100 mM Tris, 200 mM NaCl, 0.2% Triton X-100, 100 μg/mL) per well, and cultured at 37° C. for 90 minutes, and the extracted supernatant was treated with the same amount of isopropanol and 25 μL of a 4M NaCl solution. After storage at −20° C. overnight, distilled water (D.W.) was added to a pellet obtained by centrifugation (14,000 rpm, RT, 20 min), thereby extracting mtDNA. Afterward, 2 μl of DNA, 10 μl of the SYBR green PCR master mix, 0.5 μL of each of a forward primer and a reverse primer having a concentration of 10 pmol, and 6.6 μL of sterile distilled water were mixed, and qPCR was performed using the Thunderbird TMSYBR® qPCR Mix reagent (Takara Bio Inc., Japan). A gene expression level was analyzed using the iQ5 Cycler System (Bio-Rad, USA).
The change in mitochondrial DNA content and abundance were determined using MitoTracker. Olfr544 siRNA-transfected cells were treated with an azelaic acid at a concentration of 50 μM for 24 hours, and then washed with PBS. Afterward, a medium containing 200 nM of the MitoTracker green probe was added to the cells, and the cells were cultured for 30 minutes. The mitochondrial density was measured by quantifying wavelengths of a part binding to the tracker, which absorbs a wavelength at 490 nm and emits a wavelength at 516 nm, using SpectraMax. The images were obtained by the Zeiss LSM700 confocal microscope, and then analyzed using the Zeiss LSM700 version 3.2 software (Carl Zeiss, Germany)

[4] = system: C2C12 cells; experiment: mtDNA level and mitochondrial density (MitoTracker) in differentiated C2C12 cells; assay type: cell-based, murine
Procedure: (§4) Murine skeletal muscle cells, C2C12 cells, were purchased from the Korean Cell Line Bank. The cells were cultured using a Dulbecco's modified Eagle's medium (DMEM) supplemented with 20% fetal bovine serum (FBS; HyClone, USA) and 1% antibiotics (penicillin/streptomycin). When the cells reached 50% confluency (the degree of proliferation) under 5% CO2 (v/v) at 37° C., the cells were subcultured and maintained.
(§5) To differentiate the cells, the medium was replaced with DMEM containing 2% horse serum (HyClone), and after 7 days of differentiation, the cells were used in the experiment.
C2C12 cells differentiated for 7 days as described in Example 2-1 were treated with 12.5, 25 or 50 μM of an azelaic acid. After 24 hours, RNA and proteins were extracted according to the following method, and used in the experiment. For a control, instead of an azelaic acid, the same amount of DMSO was treated.
After treatment with azelaic acid, the change in mitochondrial density was detected using MitoTracker. C2C12 cells were treated with an azelaic acid for 24 hours, and then washed with PBS. Subsequently, a medium containing […] of MitoTracker, i.e., a green probe, was added thereto, and the cells were cultured for 30 minutes. The mitochondrial density was measured by quantifying wavelengths of a part binding to the tracker, which absorbs a wavelength at 490 nm and emits a wavelength at 516 nm, using SpectraMax. Image analysis was performed using a confocal microscope and Zeiss LSM700 version 3.2 software (Carl Zeiss, Germany).
as §3, with “Afterward, 2 μl of DNA, 10 μl of the SYBR green PCR master mix, 0.5 μL of each of a forward primer and a reverse primer having a concentration of 10 pmol, and 6.6 μL of sterile distilled water were mixed, and qPCR was performed using the Thunderbird TMSYBR® qPCR Mix reagent (Takara Bio Inc., Japan).” left out

[5] = system: Olfr544; experiment: Immunoblotting of pCREB, pERK1/2 and LC3II/LC3I in normal and Olfr544 knockdown C2C12 cells; assay type: cell-based, murine
Procedure: The differentiated skeletal muscle cells, C2C12 cells, were transfected with 200 pmol of scramble (control) or Olfr544 siRNA (Santa Cruz, USA) using the Lipofectamine 2000 reagent (Invitrogen, USA) for 6 hours. Subsequently, one more transfection was performed for 10 to 12 hours. After 24 hours, the transfected cells were treated with an azelaic acid and used for protein extraction.
Protein extraction was performed using an RIPA buffer (10 mM Tris-HCl, pH 7.5, 1% NP-40, 0.1% sodium deoxycholate, 0.1% SDS, 150 mM NaCl, and 1 mM EDTA), a Halt™ protease and a phosphatase inhibitor reagent (Thermo, USA). As primary antibodies, anti-CREB (1:250), anti-p-CREB (Ser133; 1:500), anti-β-actin (1:1000), anti-α-tubulin (1:1000), anti-ERK1/2 (1:500), anti-p-ERK1/2 (Thr53,54, 1:500), and anti-PGC-1α (1:500; Santa Cruz Biotechnology, Santa Cruz, USA) were used. In addition, anti-LC3B (1:500) was purchased from Novus Biologicals (Novus Biologicals, USA). The resulting immunoblotting image was analyzed using the ChemiDoc™ touch imaging system and Image Lab 5.2 software (Bio-Rad, PA, USA).

[6] = system: Olfr544; experiment: PGC-1α expression in Scr siRNA normal and Olfr544 knockdown C2C12 cells; assay type: cell-based, murine; details: 50 μM
Procedure: as §2
qPCR was performed to synthesize cDNA using RNA extracted from cells grown in a culture medium and then treated with 300 μL of the RNAiso plus reagent per well. Subsequently, the synthesized cDNA was subjected to qPCR using the Thunderbird TMSYBR® qPCR Mix reagent (Takara Bio Inc., Japan). A gene expression level was analyzed using the iQ5 Cycler System (Bio-Rad, USA).
(§6) Protein extraction was performed using an RIPA buffer (10 mM Tris-HCl, pH 7.5, 1% NP-40, 0.1% sodium deoxycholate, 0.1% SDS, 150 mM NaCl, and 1 mM EDTA), a Halt™ protease and a phosphatase inhibitor reagent (Thermo, USA). As primary antibodies, anti-α-tubulin (1:1000) and anti-PGC-1α (1:500; Santa Cruz Biotechnology, Santa Cruz, USA) were used. The resulting immunoblotting image was analyzed using the ChemiDoc™ touch imaging system and Image Lab 5.2 software (Bio-Rad, PA, USA).

[7] = system: PGC-1α; experiment: PGC-1α gene and protein expression in differentiated C2C12 cells (qPCR, immunoblotting); assay type: cell-based, murine; details: 50 μM, 24 hours, compared to DMSO control
Procedure: as §4, §5
C2C12 cells differentiated for 7 days as described in Example 2-1 were treated with 12.5, 25 or 50 μM of an azelaic acid. […]
qPCR was performed to synthesize cDNA using RNA extracted from cells grown in a culture medium and then treated with 300 μL of the RNAiso plus reagent per well. […] A gene expression level was analyzed using the iQ5 Cycler System (Bio-Rad, USA).
as §6, with “As primary antibodies, anti-α-tubulin (1:1000) and anti-PGC-1α (1:500; Santa Cruz Biotechnology, Santa Cruz, USA) were used.” left out

[8] = system: muscle tissue of HFD-induced obese mice; experiment: Oral administration for 6 weeks to HFD-induced obese normal and Olfr544 knockout mice, muscle tissue qPCR and mtDNA; assay type: in vivo, mouse; details: oral 100 mg/kg
Procedure: as §1
cDNA was synthesized using RNA extracted by adding the RNAiso plus reagent to murine muscle cells. Subsequently, the synthesized cDNA was subjected to qPCR using the Thunderbird TMSYBR® qPCR Mix reagent (Takara Bio Inc., Japan). A gene expression level was analyzed using the iQ5 Cycler System (Bio-Rad, USA).
as §3, with “Murine muscle” for “The differentiated C2C12”, “with” for “with azelaic acid, treated with 300 μL of”, “μg/mL),” for “μg/mL) per well,”

[9] = normal mice, 30 minutes after injection
[10] = normal mice, 120 minutes after injection
[11] = Olfr544 knockdown C2C12 cells, 50 μM, 24 hours
[12] = Scr siRNA-transfected normal C2C12 cells

## O=C(O)CCCCCCCC(=O)O [azelaic acid, nonanedioic acid]
[1]; Olfr544 knockout mice
  LC3II/LC3I protein expression in muscle: no change
  pERK/ERK protein expression in muscle: no change
[1]; [9]
  LC3II/LC3I protein expression increase in muscle: 1.5 fold
  pERK/ERK protein expression increase in muscle: 2.5 fold
[1]; [10]
  LC3II/LC3I protein expression in muscle: not changed
  pERK/ERK protein expression increase in muscle: 2.8 fold
[2]
  toxicity (cell viability, MTT assay): toxicity was not observed at any concentration
[3]; C2C12 normal cells, azelaic acid (50 µM)
  mitochondrial density (quantification): enrichment of mitochondria
[3]; [11]
  mitochondrial density change: no changes
  mtDNA change: no changes
[3]; azelaic acid-treated normal C2C12 cells, 50 μM, 24 hours
  mtDNA increase: about 1.6 fold
[4]; 50 μM, 24 hours
  mitochondrial density (MitoTracker quantification): significantly increased
  mtDNA level, increase over control: about 2.5 fold
[4]; treated group compared to control group
  mitochondrial density, MitoTracker images under confocal fluorescence microscopy: substantial increases
[5]; Olfr544 knockdown C2C12 cells
  LC3II/LC3I protein expression: this effect disappeared
  pCREB expression change: no change
[5]; normal (Scr siRNA) C2C12 cells
  pCREB expression increase: about 2 fold
[5]; normal C2C12 cells, compared to the control group
  LC3II/LC3I protein expression increase: about 3 fold
[5]; skeletal muscle cells (C2C12)
  phosphorylated ERK1/2 protein expression increase: 1.5 fold
[6]; Olfr544 knockdown C2C12 cells
  PGC-1α mRNA level: this effect is not shown
  PGC-1α protein level: this effect is not shown
[6]; [12]
  PGC-1α mRNA level: significantly increases
  PGC-1α protein level: significantly increases
[7]
  PGC-1α gene expression: increased
  PGC-1α protein expression: increased
[8]; Olfr544 knockout HFD mice
  PGC-1α mRNA expression in muscle: no changes
  Tfa gene expression in muscle: no change
  mt DNAs in muscle: no change
[8]; normal HFD mice
  Tfa gene expression increase in muscle: about 3.3 fold
[8]; normal HFD mice, compared to control group
  PGC-1α mRNA expression increase in muscle: about 1.9 fold
[8]; normal HFD mice, compared to non-administered mice
  mt DNAs in muscle: increased
